Assay results: paper PMC11778240, “Synthesis and preclinical evaluation of tigilanol tiglate analogs as latency-reversing agents for the eradication of HIV” (Science Advances, 2025)
Read-outs that look alike come from different tables or passages of the source.

Columns and labels:
PKC-β-I = target: T1, PKC-β-I (Homo sapiens, UniProt P05771); assay: Cell-free PKC competition binding assay against 3H-PDBu; conditions: for PKC-β selectivity: Fig. 7A, PKC-β over PKC-δ; for logKi (best-fit value), PKC-β-I: log of Ki in nM
T1 construct: purchased Invitrogen
From the text: (§1) With a diverse library of compounds bearing unique functionalities on the A-, B-, and C-rings (Fig. 6), we began to explore how these modifications affect PKC binding (Fig. 7A), NF-κB activation (Fig. 7B), cell permeation and PKC translocation (Fig. 7, C and D), and latency reversal in J-Lat cells (Fig. 8). […] We conducted this assay with phosphatidyl serine vesicles in solution that mimic the cellular membrane and play a critical role in the binding of small molecules to the PKC C1 domain (Fig. 7A) ([64]).
(§2) Cell-free PKC Binding Assay
The protein kinase C (PKC) affinity of EBC-46 and EBC-46 analogs was determined via […]
entails a glass-fiber filtration method to determine bound radioligand. The method of determining the radioligand Kd is also described.
(§3) Tris HCl (Fisher, ≥ 99%, stored at room temperature)
(§4) Phosphatidylserine (Avanti Polar Lipids, porcine, 25 mg/mL CHCl3 solution, stored at - […]
(§5) Bovine serum albumin (Sigma -Aldrich, ≥ 98%, globulin free, protease free, stored at 4 […]
Human PKC-β-I-GST fusion protein (Invitrogen, aliquoted and stored at -78 °C) Human PKC-δ-GST fusion protein (Invitrogen, aliquoted and stored at -78 °C) Glass-fiber filters (Whatman GF/B) […]
(§6) a final concentration of 500 nM.
(§7) Preparation of phosphatidylserine (PS) vesicles :
(§8) For every 96 samples, 3.5 mg phosphatidylserine (140 μL) (25 mg/mL CHCl3 solution) was concentrated by removing chloroform under reduced pressure. The phosphatidylserine residue was resuspended in freshly prepared PKC binding assay buffer (3.5 mL), capped, and then thoroughly mixed by alternating between sonicating and vortexing, in 10 second intervals for 1 minute or until a cloudy white mixture (Branson Sonifier 250, power = 2, 50% duty cycle). The resulting cloudy white mixture (1 mg/mL) was stored on ic e until use.
(§9) Preparation of the "master mix" Solution :
(§10) Constituent Stock concentration (final concentration/amount in “master mix”):
(§11) PS vesicles (0.103 mg/mL)
(§12) Deionized H2O - Final vol of 30 mL
(§13) Preparation of PKC binding assay buffer:
(§14) For every 96 samples, to a 50 mL polypropylene tube was added Tris -HCl (pH 7.4, 1 M, 1.5 mL), KCl (1 M, 3 mL), CaCl2 (0.1 M, 35 μL – conventional isoforms only), and bovine serum albumin (60 mg). This mixture was diluted to 30 mL with deionized H2O and mixed gently. The buffer was […]
(§15) Preparation of PKC isoform solution:
(§16) For every 96 samples, PKC isoform solution was prepared by dissolving a 4 μg aliquot of the indicated recombinant human PKC isoform into 26.5 mL of PKC binding assay buffer. The diluted PKC was stored on ice for immediate use.
(§17) Preparation of PKC “master mix” solution:
(§18) To the PKC-isoform solution was added 1 mg/mL PS vesicles solution (3.30 mL), and 500 nM […]
(§19) The resulting “master mix” solution was vortexed and stored on […]
(§20) Preparation of analog compound dilutions:
(§21) Compound dilutions were prepared with filtered DMSO by serially diluting from a chosen "high" concentration. For the saturation binding experiment (radioligand Kd determination), the maximum radioligand concentration used was 4.0 nM with 2-fold dilutions between data points […]
(§22) the middle of the binding curve.
For the competition binding experiment (analog Ki determination), 7 or 14 concentrations were used to define the inhibition curve, and compounds dilutions changed by factors of 2 or √2 between data points. The concentrations were chosen such that the in-assay concentration for the data points in the middle of the binding curve were approximately equal to the IC50 of the compound (if the IC50 is unknown, an exploratory binding assay is recommended prior to Ki determination). For assays with one compound per sheet, the √2-fold dilutions were prepared for the concentrations in […]
PKC binding assay protocol (Saturation -binding experiment and Competition -binding experiment)
1) Glass-fiber filters were prepared by soaking them in a solution of aqueous polyethyleneimine

PKC-δ = target: T2, PKC-δ (Homo sapiens, UniProt Q05655); assay: as above
T2 construct: purchased Invitrogen (Sinobiological for the SUW402 experiment)
From the text: as §1, §2
The protein kinase C (PKC) affinity of EBC-46 and EBC-46 analogs was determined via competition with 3H-phorbol-12,13-dibutyrate (3H-PDBu) as described below. This procedure entails a glass-fiber filtration method to determine bound radioligand. The method of determining the radioligand Kd is also described.
as §3, §4, §5
Human PKC-β-I-GST fusion protein (Invitrogen, aliquoted and stored at -78 °C) Human PKC-δ-GST fusion protein (Invitrogen, aliquoted and stored at -78 °C) Glass-fiber filters (Whatman GF/B)
Preparation of 3H -PDBu solution : […]
as §6, §7, §8, §9, §10, §11, §12, §13, §14, §15, §16, §17, §18, §19, §20, §21
isoforms ranges from 0.3 – 0.8 nM. […]
as §22
For the competition binding experiment (analog Ki determination), 7 or 14 concentrations were used to define the inhibition curve, and compounds dilutions changed by factors of 2 or √2 between data points. The concentrations were chosen such that the in-assay concentration for the data points in the middle of the binding curve were approximately equal to the IC50 of the compound (if the IC50 is unknown, an exploratory binding assay is recommended prior to Ki determination). For assays with one compound per sheet, the √2-fold dilutions were prepared for the concentrations in the middle of the curve (e.g., for SUW400, the analog dilutions used were 15000 nM, 7500 nM, […]
PKC binding assay protocol (Saturation -binding experiment and Competition -binding experiment) […]

[1] = HotNM 2.5, HotKdNM 0.37, supplement fit, read-out: Ki (best-fit value), PKC-β-I
[2] = competition against radiolabeled PDBu, Fig. 7A and text, read-out: Ki PKC-β
[3] = HotNM 2.5, HotKdNM 0.62, supplement fit, read-out: Ki (best-fit value), PKC-δ
[4] = competition against radiolabeled PDBu, Fig. 7A and text, read-out: Ki PKC-δ
[5] = log of Ki in nM, HotNM 2.5, HotKdNM 0.62

T2 sequence (Q05655 whole entry): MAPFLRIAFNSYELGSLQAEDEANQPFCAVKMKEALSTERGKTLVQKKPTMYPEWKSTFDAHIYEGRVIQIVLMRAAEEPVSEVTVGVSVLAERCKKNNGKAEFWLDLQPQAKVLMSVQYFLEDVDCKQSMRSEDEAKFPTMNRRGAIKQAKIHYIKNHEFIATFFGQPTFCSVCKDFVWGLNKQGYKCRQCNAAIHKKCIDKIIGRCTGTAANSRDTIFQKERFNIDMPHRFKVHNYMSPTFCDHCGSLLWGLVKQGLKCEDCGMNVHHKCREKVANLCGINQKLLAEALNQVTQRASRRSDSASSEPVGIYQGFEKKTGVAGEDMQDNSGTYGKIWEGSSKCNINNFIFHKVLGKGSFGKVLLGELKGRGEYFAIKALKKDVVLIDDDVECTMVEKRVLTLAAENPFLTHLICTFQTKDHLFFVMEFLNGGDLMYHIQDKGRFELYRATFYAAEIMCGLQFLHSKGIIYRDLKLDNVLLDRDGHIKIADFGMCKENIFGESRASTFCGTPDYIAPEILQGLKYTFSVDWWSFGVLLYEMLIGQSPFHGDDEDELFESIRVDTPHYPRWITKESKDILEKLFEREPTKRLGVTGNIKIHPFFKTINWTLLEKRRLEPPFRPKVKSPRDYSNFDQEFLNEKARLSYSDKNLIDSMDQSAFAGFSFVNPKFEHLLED
T1 sequence (P05771 whole entry): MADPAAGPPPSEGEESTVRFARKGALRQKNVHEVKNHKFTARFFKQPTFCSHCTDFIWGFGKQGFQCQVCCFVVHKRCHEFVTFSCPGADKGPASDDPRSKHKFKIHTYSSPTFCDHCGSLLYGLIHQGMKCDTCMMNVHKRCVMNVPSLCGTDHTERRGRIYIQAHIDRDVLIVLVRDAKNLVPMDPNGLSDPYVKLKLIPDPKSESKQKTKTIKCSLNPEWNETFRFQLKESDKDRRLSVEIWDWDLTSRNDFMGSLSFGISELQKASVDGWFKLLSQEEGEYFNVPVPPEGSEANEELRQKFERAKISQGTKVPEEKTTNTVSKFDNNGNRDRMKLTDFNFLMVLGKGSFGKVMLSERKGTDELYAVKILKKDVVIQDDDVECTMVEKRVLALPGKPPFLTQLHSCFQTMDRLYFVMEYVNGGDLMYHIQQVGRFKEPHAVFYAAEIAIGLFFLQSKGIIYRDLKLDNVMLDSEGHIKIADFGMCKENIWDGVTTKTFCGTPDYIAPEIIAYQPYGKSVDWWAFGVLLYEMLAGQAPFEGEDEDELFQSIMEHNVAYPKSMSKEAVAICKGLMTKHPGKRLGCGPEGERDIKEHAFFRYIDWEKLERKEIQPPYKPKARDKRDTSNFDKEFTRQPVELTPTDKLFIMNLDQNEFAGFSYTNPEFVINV

Structure (SMILES) | PKC-β selectivity (PKC-β-I) | Ki (PKC-β-I; [1]) | PKC binding affinity and selectivity in words (PKC-β-I; PKC-β and PKC-δ) | Ki (PKC-β-I; [2]) | logKi (best-fit value), PKC-β-I (PKC-β-I; HotNM 2.5, HotKdNM 0.37) | Ki (PKC-δ; [3]) | Ki (PKC-δ; [4]) | logKi (best-fit value), PKC-δ (PKC-δ; [5]) | selectivity for PKC-β over PKC-δ (PKC-β-I) | weaker binding affinity for PKC-δ than EBC-46 (PKC-δ) | logKi (best-fit value), PKC-δ (PKC-δ; PKC-δ-GST from a different vendor (Sinobiological), HotNM 2.5, HotKdNM 2.94) | Ki (PKC-δ; PKC-δ-GST from a different vendor (Sinobiological), HotNM 2.5, HotKdNM 2.94, read-out: Ki (best-fit value), PKC-δ) | decrease in PKC binding affinity / potency compared to EBC-46 (PKC-β-I; PKC-β and PKC-δ) | logKi (best-fit value), PKC-δ (PKC-δ; HotNM 5, HotKdNM 0.72) | Ki (PKC-δ; HotNM 5, HotKdNM 0.72, read-out: Ki (best-fit value), PKC-δ) | preference for binding PKC-β over PKC-δ (PKC-β-I; Discussion)
C/C=C(\C)C(=O)O[C@@H]1[C@@H](C)[C@]2(O)[C@@H]3C=C(C)[C@H](OC(=O)C=C(C)C)[C@@]3(O)[C@H](O)C(CO)=C[C@H]2[C@@H]2C(C)(C)[C@]12OC(=O)[C@@H](C)CC [SUW425] | 1.8 | 2.61 nM | approximately the same as EBC-46 | 2.6 nM | 0.4165 | 4.73 nM | 4.7 nM | 0.6748 | – | – | – | – | – | – | – | –
C/C=C(\C)C(=O)O[C@@H]1[C@@H](C)[C@@]2(O)[C@H]([C@@H]3C(C)(C)[C@]13OC(=O)C1CCC1)[C@@H]1O[C@]1(CO)[C@@H](O)[C@]1(O)C(=O)C(C)=C[C@H]12 [SUW406] | 3.8 | 1.98 nM | – | 2 nM | 0.2968 | 7.5 nM | 7.5 nM | 0.8752 | fourfold | – | – | – | – | – | – | –
C/C=C(\C)C(=O)O[C@@H]1[C@@H](C)[C@@]2(O)[C@H]([C@@H]3C(C)(C)[C@]13OC(=O)[C@H](C)CC)[C@@H]1O[C@]1(CO)[C@@H](O)[C@]1(O)C(=O)C(C)=C[C@H]12 [SUW407] | 1.6 | 2.31 nM | – | 2.3 nM | 0.3637 | 3.73 nM | 3.7 nM | 0.5722 | – | – | – | – | – | – | – | –
C/C=C(\C)C(=O)O[C@@H]1[C@@H](C)[C@@]2(O)[C@H]([C@@H]3C(C)(C)[C@]13OC(=O)c1ccccc1)[C@@H]1O[C@]1(CO)[C@@H](O)[C@]1(O)C(=O)C(C)=C[C@H]12 [SUW428] | 12.5 | 5.12 nM | approximately three times lower affinity for PKC-β compared to EBC-46 | 5.1 nM | 0.7091 | 64.2 nM | 64 nM | 1.808 | > 12 fold | ~ 20 × | – | – | – | – | – | –
C/C=C(\C)C(=O)O[C@@H]1[C@@H](C)[C@@]2(O)[C@@H](C=C(CO)C[C@]3(O)C(=O)C(C)=C[C@@H]23)[C@@H]2C(C)(C)[C@]12OC(=O)[C@@H](C)CC [SUW402] | 3.7 | 0.118 nM | remarkable affinities in the picomolar range | 0.12 nM | -0.9263 | – | 0.44 nM | – | – | – | -0.3561 | 0.44 nM | – | – | – | –
CC[C@H](C)C(=O)O[C@@]12[C@H](OC(=O)C3(C)CC3)[C@@H](C)[C@@]3(O)[C@H]([C@@H]1C2(C)C)[C@@H]1O[C@]1(CO)[C@@H](O)[C@]1(O)C(=O)C(C)=C[C@H]13 [SUW413] | 3.9 | 2.45 nM | very similar binding affinity to both PKC-β and PKC-δ compared to SUW406 | 2.5 nM | 0.3892 | 9.66 nM | 9.7 nM | 0.9851 | – | – | – | – | – | – | – | –
CC=C(C)C(=O)OC1C(C)C2(O)C(C3OC3(COC)C(O)C3(O)C(=O)C(C)=CC32)C2C(C)(C)C12OC(=O)C(C)CC (stereo not drawn) [SUW426] | 1.8 | 396 nM | – | 400 nM | 2.598 | – | 700 nM | – | – | – | – | – | approximately 250 fold | 2.846 | 702 nM | –
C/C=C(\C)C(=O)O[C@@H]1[C@@H](C)[C@@]2(O)[C@H]([C@@H]3C(C)(C)[C@]13OC(=O)[C@@H](C)CC)[C@@H]1O[C@]1(CO)[C@@H](O)[C@]1(O)C(=O)C(C)=C[C@H]12 [EBC-46, Tigilanol tiglate] | 2.3 | 1.38 nM | – | 1.4 nM | 0.1397 | 3.24 nM | 3.2 nM | 0.5102 | twofold | – | – | – | – | – | – | 2.3 ×
